Data published in patent US20240218011A1, “GLUCOCORTICOID RECEPTOR AGONISTS AND CONJUGATES THEREOF” (FireFly Bio, Inc., priority 2022, published 2024).

test system: Human monocyte derived dendritic cells and allogeneic CD3+ T cells; test: Allo mixed lymphocyte assay (monocyte derived dendritic cells + allogeneic CD3+ T cells), cytokines by MSD ELISA; format: cell-based; settings: 100 nM, 48 hrs co-culture, mean of duplicates
Description: Human monocyte derived dendritic cells were derived in vitro from healthy human donor CD 14^+ monocytes, isolated from blood by standard cell marker negative selection with antibody coated beads, by culture of the monocytes under a standard dendritic cell generation protocol with added GM-CSF and IL4 for 6 days. […] Conjugates, protein, and small molecule controls were added at 100 nM immediately after. After 48 hrs of co-culture supernatants were collected from wells and cytokine levels for T cell derived cytokines (IL2, IFNγ) and dendritic cell derived cytokines (IL6, IL 12p40) were measured by MSD multiplex ELISA and plate reader per manufacturer's instructions (Meso Scale Diagnostics LLC).

| Compound | IFNγ % Media [% Media] | IL2 % Media [% Media] | IL12p40 % Media [% Media] |
| --- | --- | --- | --- |
| belimumab [Anti-BAFF (belimumab)] | 140 | 72 | 139 |
| CCCC1O[C@@H]2C[C@H]3[C@@H]4CCC5=CC(=O)C=C[C@]5(C)[C@H]4[C@@H](O)C[C@]3(C)[C@]2(C(=O)CO)O1 (stereo partly shown) [budesonide, reference compound] | 1 | 14 | 1 |

same assay, conditions: 100 nM, 48 hrs co-culture, mean of duplicates; LLOQ = lower limit of quantitation in the MSD assay

| Compound | IL6 % Media [% Media] |
| --- | --- |
| belimumab [Anti-BAFF (belimumab)] | 121 |

test system: parental GR-GAL4 Reporter (Luc)-HEK293 cell line (non-BAFF-expressing); test: GR-GAL4 luciferase reporter assay, parental reporter cell line (Anti-BAFF conjugates); format: cell-based; settings: Table 22, 24 hour incubation; * = low confidence in EC50 due to curve fit
Description: (§1) To determine the level of GR agonism at the end of the incubation luciferase levels were determined with the Steady-Glo Luciferase Assay System (Promega, cat #E2520 or E2550). The results were analyzed with Graphpad Prism software v9.1 (Graphpad Inc) to determine EC50.
(§2) The memBAFF and parental GR-GAL4 luciferase cell reporter cell lines were plated in 96 well plates in complete DMEM media. […] To determine the level of GR agonism found for the different treatments, at the end of the incubation firefly luciferase was measured as per manufacturer's instructions with the Steady-Glo Luciferase Assay System (Promega, cat #E2520 or E2550) and then analyzed with Graphpad Prism software (Graphpad Inc v9.1) to determine EC50.

| Compound | EC50 [nM] |
| --- | --- |
| belimumab [BAFF mAb (belimumab)] | > 500 |

same assay, conditions: parental line, 500 nM-[…]

| Compound | GR agonism over the complete dilution series |
| --- | --- |
| belimumab [BAFF mAb (belimumab)] | no GR agonism |

test system: GR-GAL4 Reporter (Luc)-HEK293 cell line stably expressing membrane human BAFF (memBAFF); test: GR-GAL4 luciferase reporter assay, memBAFF reporter cell line; format: cell-based; settings: Table 22, 24 hour incubation; * = low confidence in EC50 due to curve fit; read-out: EC50 (nM) Mem(BAFF) line
Description: as §1, §2

| Compound | EC50 [nM] |
| --- | --- |
| belimumab [BAFF mAb (belimumab)] | > 500 |

same assay, conditions: memBAFF line, 500 nM-[…]

| Compound | GR agonism over the complete dilution series |
| --- | --- |
| belimumab [BAFF mAb (belimumab)] | no GR agonism |

test system: antigen-driven (FITC) ear inflammation; test: FITC antigen-driven ear inflammation in mice (ear swelling); format: in vivo, Balb/c mice; settings: 24 hours after FITC rechallenge, ip 20 mpk conjugate or antibody, 10 mpk dexamethasone
Description: Female Balb/c mice aged 6-7 weeks (Envigo Labs) were used. On day 0 ear thickness was measured in all mice using microcalipers. On day 0 mice were then sensitized to the antigen fluorescsein isothiocyanate (FITC) on a shaved flank by application of 50 microliters of 1% FITC in a formulation of 50% acetone:50% dibutyl phthalate. […] After 24 hours ear thickness was determined on the treated ear. […] Animals were bled for serum and sacrificed on day 9. […] Ear thickness and ELISA results were analyzed for differences in means with GraphPad Prism software by one-way ANOVA with Dunnett's multiple comparisons.

| Compound | Mean Swelling (mm) |
| --- | --- |
| C[C@@H]1C[C@H]2[C@@H]3CCC4=CC(=O)C=C[C@]4(C)[C@@]3(F)[C@@H](O)C[C@]2(C)[C@@]1(O)C(=O)CO [dexamethasone, reference compound] | 0.07 |

biological target: T1, Glucocorticoid Receptor (GR) (Homo sapiens, UniProt P04150); test: GR reporter assay (GR-GAL4 Reporter (Luc)-HEK293 cells, Steady-Glo luciferase); format: cell-based; settings: 24 hours, read-out: GR reporter agonist
T1 construct: A GAL4-responsive firefly luciferase reporter is the read-out; Some cells also express CD40, which is irrelevant for the free small molecules
T1 sequence (P04150 524-777 limits assumed): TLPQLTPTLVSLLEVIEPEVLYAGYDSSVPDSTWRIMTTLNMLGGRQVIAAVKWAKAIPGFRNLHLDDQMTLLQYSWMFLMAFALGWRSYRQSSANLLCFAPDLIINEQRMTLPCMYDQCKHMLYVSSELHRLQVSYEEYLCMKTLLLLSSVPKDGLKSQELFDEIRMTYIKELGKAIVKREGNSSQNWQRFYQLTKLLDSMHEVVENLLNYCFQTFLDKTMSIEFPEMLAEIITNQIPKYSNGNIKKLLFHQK
Description: Certain GR agonist compounds of the present disclosure were tested in a GR reporter assay. Briefly, CD40 expressing GR-GAL4 Reporter (Luc)-HEK293 or parental GR-GAL4 reporter (Luc)-HEK293 cells were harvested from culture and seeded wells at a density of ˜30,000 cells per well in 45 μl of assay medium. Cells were incubated at 37° C. in a CO2 incubator overnight. […] The plates were incubated at 37° C. in a CO2 incubator for 24 hours. The Steady-Glo Luciferase Assay System (Promega), following manufacturer's instructions, was used to detect luminescence, which was measured using a luminometer.
The average background luminescence (cell-free control wells) was substracted from the luminescence reading of all wells. […] The EC50 value for each conjugate was determined in both CD40 expressing and parental GR-GAL4 Reporter (Luc)-HEK293 cells and the ratio was used to as a measure of linker stability and non-specific uptake.

| Compound | EC50 [nM] |
| --- | --- |
| C[C@]12C=CC(=O)C=C1CC[C@@H]1[C@@H]2[C@@H](O)C[C@@]2(C)[C@H]1C[C@H]1O[C@@H](c3ccc(Cn4ccnn4)cc3)O[C@]12C(=O)CO [Compound 2] | 17 |
| C[C@]12C=CC(=O)C=C1[C@@H](F)C[C@H]1[C@@H]3C[C@H]4O[C@@H](C5CC6(CCOCC6)C5)O[C@@]4(C(=O)CO)[C@@]3(C)C[C@H](O)[C@@]12F [Compound 42] | 9 |
| Cc1nn[nH]c1-c1ccc([C@@H]2O[C@@H]3C[C@H]4[C@@H]5CCC6=CC(=O)C=C[C@]6(C)[C@H]5[C@@H](O)C[C@]4(C)[C@]3(C(=O)CO)O2)cc1 [Compound 1] | 22.2 |
| C[C@]12C=CC(=O)C=C1CC[C@@H]1[C@@H]2[C@@H](O)C[C@@]2(C)[C@H]1C[C@H]1O[C@@H](C3CCC3)O[C@]12C(=O)CO [Compound 85] | 4.9 |
| C[C@]12C=CC(=O)C=C1CC[C@H]1[C@@H]3C[C@H]4O[C@@H](c5sccc5F)O[C@@]4(C(=O)CO)[C@@]3(C)C[C@H](O)[C@@]12F [Compound 52a] | 0.57 |
| C[C@]12C=CC(=O)C=C1CC[C@@H]1[C@@H]2[C@@H](O)C[C@@]2(C)[C@H]1C[C@H]1O[C@@H](c3ccc(Cc4c[nH]nn4)cc3)O[C@]12C(=O)CO [Compound 3] | 25.1 |
| C[C@]12C=CC(=O)C=C1CC[C@@H]1[C@@H]2[C@@H](O)C[C@@]2(C)[C@H]1C[C@H]1O[C@@H](/C=C/C3CC3)O[C@]12C(=O)CO [Compound 58] | 32.6 |
| Cn1cc([C@@H]2O[C@@H]3C[C@H]4[C@@H]5CCC6=CC(=O)C=C[C@]6(C)[C@H]5[C@@H](O)C[C@]4(C)[C@]3(C(=O)CO)O2)cn1 [Compound 5] | 49.1 |
| C[C@]12C=CC(=O)C=C1[C@@H](F)C[C@H]1[C@@H]3C[C@H]4O[C@@H](c5sccc5F)O[C@@]4(C(=O)CO)[C@@]3(C)C[C@H](O)[C@@]12F [Compound 30a] | 0.44 |
| C[C@]12C=CC(=O)C=C1CC[C@@H]1[C@@H]2[C@@H](O)C[C@@]2(C)[C@H]1C[C@H]1O[C@@H](c3ccc4c(c3)OCCO4)O[C@]12C(=O)CO [Compound 7] | 47 |
| C[C@]12C=CC(=O)C=C1[C@@H](F)C[C@H]1[C@@H]3C[C@H]4O[C@@H](c5ccc(OCC(F)(F)CN)c(F)c5)O[C@@]4(C(=O)CO)[C@@]3(C)C[C@H](O)[C@@]12F [Compound 19] | 23.8 |
| C[C@]12C=CC(=O)C=C1[C@@H](F)C[C@H]1[C@@H]3C[C@H]4O[C@@H](c5cc6c(s5)CCCC6)O[C@@]4(C(=O)CO)[C@@]3(C)C[C@H](O)[C@@]12F [Compound 43] | 3.7 |
| Cn1nccc1[C@@H]1O[C@@H]2C[C@H]3[C@@H]4CCC5=CC(=O)C=C[C@]5(C)[C@H]4[C@@H](O)C[C@]3(C)[C@]2(C(=O)CO)O1 [Compound 4] | 21.8 |
| C[C@]12C=CC(=O)C=C1[C@@H](F)C[C@H]1[C@@H]3C[C@H]4O[C@@H](c5cccc(F)c5)O[C@@]4(C(=O)CN)[C@@]3(C)C[C@H](O)[C@@]12F [Compound 16] | 39.1 |
| C[C@]12C=CC(=O)C=C1CC[C@H]1[C@@H]3C[C@H]4O[C@@H](C5CCC5)O[C@@]4(C(=O)CO)[C@@]3(C)C[C@H](O)[C@@]12F [Compound 51] | 1.2 |
| C[C@]12C=CC(=O)C=C1[C@@H](F)C[C@H]1[C@@H]3C[C@H]4O[C@@H](c5ccc(F)s5)O[C@@]4(C(=O)CO)[C@@]3(C)C[C@H](O)[C@@]12F [Compound 27] | 0.46 |
| C[C@]12C=CC(=O)C=C1[C@@H](F)C[C@H]1[C@@H]3C[C@H]4O[C@@H](C#Cc5ccccc5)O[C@@]4(C(=O)CO)[C@@]3(C)C[C@H](O)[C@@]12F [Compound 40] | 14.3 |
| C[C@]12C=CC(=O)C=C1CC[C@@H]1[C@@H]2[C@@H](O)C[C@@]2(C)[C@H]1C[C@H]1O[C@@H](c3sccc3F)O[C@]12C(=O)CO [Compound 53a] | 0.89 |
| C[C@]12C=CC(=O)C=C1CC[C@@H]1[C@@H]2[C@@H](O)C[C@@]2(C)[C@H]1C[C@H]1O[C@@H](c3ccc4c(c3)OCO4)O[C@]12C(=O)CO [Compound 6] | 25.2 |
| C[C@]12C=CC(=O)C=C1[C@@H](F)C[C@H]1[C@@H]3C[C@H]4O[C@@H](C5CCC5)O[C@@]4(C(=O)CO)[C@@]3(C)C[C@H](O)[C@@]12F [Compound 14] | 0.68 |
| C[C@]12C=CC(=O)C=C1[C@@H](F)C[C@H]1[C@@H]3C[C@H]4O[C@@H](C56CC(C5)C6)O[C@@]4(C(=O)CO)[C@@]3(C)C[C@H](O)[C@@]12F [Compound 15] | 2.9 |
| C[C@]12C=CC(=O)C=C1CC[C@H]1[C@@H]3C[C@H]4O[C@@H](c5ccccc5)O[C@@]4(C(=O)CO)[C@@]3(C)C[C@H](O)[C@@]12F [Compound 8] | 1.1 |
| C[C@@H](c1ccccc1)[C@@H]1O[C@@H]2C[C@H]3[C@@H]4C[C@H](F)C5=CC(=O)C=C[C@]5(C)[C@@]4(F)[C@@H](O)C[C@]3(C)[C@]2(C(=O)CO)O1 [Compound 50] | 23 |
| C[C@]12C=CC(=O)C=C1[C@@H](F)C[C@H]1[C@@H]3C[C@H]4O[C@@H](c5ccc(Oc6ccccc6)c(F)c5)O[C@@]4(C(=O)CO)[C@@]3(C)C[C@H](O)[C@@]12F [Compound 18] | 1.2 |
| C[C@]12C=CC(=O)C=C1CC[C@@H]1[C@@H]2[C@@H](O)C[C@@]2(C)[C@H]1C[C@H]1O[C@@H](/C=C/c3cccc(N)c3)O[C@]12C(=O)CO [Compound 67] | 172 |
